Laboratory results as given in ChEMBL document CHEMBL1201862, “PubChem BioAssay data set” (2004).
The source made the active and inactive calls.

How the values were obtained:
[1] = target: T1, DNA repair and recombination protein RAD54-like (Homo sapiens, UniProt Q92698); test: inhibitors of human RAD54 branch migration, confirmation, biochemical, fluorescence, cherry-picked samples, dose series (AID 651657); format: functional
T1 sequence (Q92698 whole entry): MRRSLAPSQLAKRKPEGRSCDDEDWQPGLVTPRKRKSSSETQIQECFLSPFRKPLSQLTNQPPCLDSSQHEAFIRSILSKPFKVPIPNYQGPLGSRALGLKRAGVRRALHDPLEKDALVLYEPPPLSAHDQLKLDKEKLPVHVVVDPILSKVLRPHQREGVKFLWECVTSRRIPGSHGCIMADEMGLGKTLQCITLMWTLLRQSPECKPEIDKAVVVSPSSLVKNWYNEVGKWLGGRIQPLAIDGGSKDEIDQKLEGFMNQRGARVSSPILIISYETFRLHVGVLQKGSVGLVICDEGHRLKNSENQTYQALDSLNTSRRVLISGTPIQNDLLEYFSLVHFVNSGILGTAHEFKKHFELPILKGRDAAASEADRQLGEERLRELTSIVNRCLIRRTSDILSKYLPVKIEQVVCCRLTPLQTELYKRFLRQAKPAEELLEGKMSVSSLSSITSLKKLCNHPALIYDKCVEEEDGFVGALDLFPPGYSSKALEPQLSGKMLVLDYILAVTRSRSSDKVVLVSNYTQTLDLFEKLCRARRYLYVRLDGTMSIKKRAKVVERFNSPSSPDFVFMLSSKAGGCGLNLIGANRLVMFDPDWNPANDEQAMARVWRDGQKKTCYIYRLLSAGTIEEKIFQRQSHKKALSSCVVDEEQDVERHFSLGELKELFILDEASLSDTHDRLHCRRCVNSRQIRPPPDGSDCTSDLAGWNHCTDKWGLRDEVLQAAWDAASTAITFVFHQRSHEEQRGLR

Cytochrome P450 2D6 = Cytochrome P450 2D6 (Homo sapiens, UniProt P10635);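 note: CYP2D6 member of a cytochrome P450 panel assay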
Cytochrome P450 2D6, sequence (P10635 whole entry): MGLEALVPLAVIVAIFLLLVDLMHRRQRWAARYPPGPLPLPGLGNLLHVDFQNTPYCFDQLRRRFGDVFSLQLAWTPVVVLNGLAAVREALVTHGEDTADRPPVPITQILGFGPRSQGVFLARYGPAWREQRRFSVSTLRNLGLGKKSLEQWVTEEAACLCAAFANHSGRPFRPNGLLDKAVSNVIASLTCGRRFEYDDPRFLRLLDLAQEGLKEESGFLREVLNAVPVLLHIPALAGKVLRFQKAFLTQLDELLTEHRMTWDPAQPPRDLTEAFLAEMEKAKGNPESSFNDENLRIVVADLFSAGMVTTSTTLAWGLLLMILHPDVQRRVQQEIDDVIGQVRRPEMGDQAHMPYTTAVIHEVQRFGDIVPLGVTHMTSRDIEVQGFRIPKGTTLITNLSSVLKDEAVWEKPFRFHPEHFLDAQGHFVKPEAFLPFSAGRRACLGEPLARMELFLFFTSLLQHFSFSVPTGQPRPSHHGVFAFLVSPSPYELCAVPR

[2] = target: Glucose-6-phosphate 1-dehydrogenase (Homo sapiens, UniProt P11413); test: human G6PD enzyme inhibitors, dose response, selectivity assay for P. falciparum G6PD inhibitor project, biochemical, fluorescence (AID 504792); format: functional
Glucose-6-phosphate 1-dehydrogenase, sequence (P11413 whole entry): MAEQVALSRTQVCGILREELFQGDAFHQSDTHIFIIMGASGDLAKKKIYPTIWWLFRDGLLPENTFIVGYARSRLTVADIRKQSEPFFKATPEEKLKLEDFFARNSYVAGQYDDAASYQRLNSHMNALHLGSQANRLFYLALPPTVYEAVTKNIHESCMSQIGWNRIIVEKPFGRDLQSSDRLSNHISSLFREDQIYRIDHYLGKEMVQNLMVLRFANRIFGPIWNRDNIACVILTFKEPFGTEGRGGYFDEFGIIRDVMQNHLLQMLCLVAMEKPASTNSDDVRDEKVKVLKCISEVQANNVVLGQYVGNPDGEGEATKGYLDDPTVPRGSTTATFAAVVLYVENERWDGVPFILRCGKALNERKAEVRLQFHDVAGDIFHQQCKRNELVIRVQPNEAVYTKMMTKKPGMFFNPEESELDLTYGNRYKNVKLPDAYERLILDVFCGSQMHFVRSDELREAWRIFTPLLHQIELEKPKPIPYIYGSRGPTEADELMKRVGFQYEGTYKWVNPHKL

[3] = target: Ras and Rab interactor 1/Tyrosine-protein kinase ABL1 (Homo sapiens, UniProt P00519+Q13671); format: functional;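 note: biochemical TR-FRET dose-response test measuring inhibition of binding between Rin1 and Abl proteins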
Ras and Rab interactor 1/Tyrosine-protein kinase ABL1, sequence (P00519 whole entry): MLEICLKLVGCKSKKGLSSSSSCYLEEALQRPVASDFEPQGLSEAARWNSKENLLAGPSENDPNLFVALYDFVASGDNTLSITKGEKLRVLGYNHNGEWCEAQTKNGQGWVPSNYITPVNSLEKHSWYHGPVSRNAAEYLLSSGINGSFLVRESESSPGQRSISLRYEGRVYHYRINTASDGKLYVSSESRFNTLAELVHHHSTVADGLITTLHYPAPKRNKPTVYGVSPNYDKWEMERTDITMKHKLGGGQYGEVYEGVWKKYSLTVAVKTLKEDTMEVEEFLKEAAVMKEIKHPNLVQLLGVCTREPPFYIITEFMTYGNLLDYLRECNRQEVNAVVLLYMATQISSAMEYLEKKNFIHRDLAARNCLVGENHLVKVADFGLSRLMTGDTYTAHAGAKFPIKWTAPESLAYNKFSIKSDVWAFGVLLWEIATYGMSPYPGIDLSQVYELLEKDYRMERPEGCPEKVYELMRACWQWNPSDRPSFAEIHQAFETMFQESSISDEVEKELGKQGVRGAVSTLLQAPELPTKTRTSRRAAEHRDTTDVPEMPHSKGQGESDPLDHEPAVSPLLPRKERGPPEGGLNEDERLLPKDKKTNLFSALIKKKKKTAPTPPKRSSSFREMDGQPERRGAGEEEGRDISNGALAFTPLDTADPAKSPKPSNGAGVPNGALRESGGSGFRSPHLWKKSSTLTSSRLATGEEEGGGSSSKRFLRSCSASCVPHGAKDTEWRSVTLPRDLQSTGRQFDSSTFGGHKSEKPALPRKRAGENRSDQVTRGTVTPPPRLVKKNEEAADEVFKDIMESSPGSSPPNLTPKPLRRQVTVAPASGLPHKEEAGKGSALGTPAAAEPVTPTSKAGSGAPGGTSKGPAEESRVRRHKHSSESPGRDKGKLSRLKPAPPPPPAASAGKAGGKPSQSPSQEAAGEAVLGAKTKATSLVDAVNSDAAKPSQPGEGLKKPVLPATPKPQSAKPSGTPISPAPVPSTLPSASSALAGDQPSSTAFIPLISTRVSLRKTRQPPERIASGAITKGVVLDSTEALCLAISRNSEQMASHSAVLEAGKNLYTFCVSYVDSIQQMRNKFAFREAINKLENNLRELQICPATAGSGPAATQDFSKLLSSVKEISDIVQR
Ras and Rab interactor 1/Tyrosine-protein kinase ABL1, sequence (Q13671 whole entry): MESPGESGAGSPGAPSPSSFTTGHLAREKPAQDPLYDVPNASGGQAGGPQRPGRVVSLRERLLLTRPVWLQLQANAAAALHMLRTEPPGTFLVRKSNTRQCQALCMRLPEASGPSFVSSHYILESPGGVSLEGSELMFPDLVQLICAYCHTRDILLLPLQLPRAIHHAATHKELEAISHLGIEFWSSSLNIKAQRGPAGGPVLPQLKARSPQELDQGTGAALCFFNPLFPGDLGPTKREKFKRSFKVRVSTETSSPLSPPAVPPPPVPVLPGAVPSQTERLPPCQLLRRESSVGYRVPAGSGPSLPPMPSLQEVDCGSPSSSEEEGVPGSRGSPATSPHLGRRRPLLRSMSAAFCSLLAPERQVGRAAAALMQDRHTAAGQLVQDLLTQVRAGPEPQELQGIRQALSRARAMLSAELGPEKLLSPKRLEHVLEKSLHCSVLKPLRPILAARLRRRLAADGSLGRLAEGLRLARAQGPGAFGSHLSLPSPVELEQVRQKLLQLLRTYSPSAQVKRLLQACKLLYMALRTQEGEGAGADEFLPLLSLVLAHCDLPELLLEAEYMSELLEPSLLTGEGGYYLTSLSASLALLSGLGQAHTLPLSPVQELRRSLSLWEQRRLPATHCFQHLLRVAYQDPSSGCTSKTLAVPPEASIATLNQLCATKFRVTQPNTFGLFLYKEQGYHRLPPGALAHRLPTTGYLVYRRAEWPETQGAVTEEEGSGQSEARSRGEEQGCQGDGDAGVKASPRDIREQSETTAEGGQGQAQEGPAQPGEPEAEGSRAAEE

Genome polyprotein = Genome polyprotein (dengue virus type 2, UniProt P29990); test: Dengue-2 NS5 methyltransferase inhibitors, primary screen, biochemical, confirmation dose response (AID 588689); format: functional
Genome polyprotein, sequence (P29990 2492-3391 limits assumed): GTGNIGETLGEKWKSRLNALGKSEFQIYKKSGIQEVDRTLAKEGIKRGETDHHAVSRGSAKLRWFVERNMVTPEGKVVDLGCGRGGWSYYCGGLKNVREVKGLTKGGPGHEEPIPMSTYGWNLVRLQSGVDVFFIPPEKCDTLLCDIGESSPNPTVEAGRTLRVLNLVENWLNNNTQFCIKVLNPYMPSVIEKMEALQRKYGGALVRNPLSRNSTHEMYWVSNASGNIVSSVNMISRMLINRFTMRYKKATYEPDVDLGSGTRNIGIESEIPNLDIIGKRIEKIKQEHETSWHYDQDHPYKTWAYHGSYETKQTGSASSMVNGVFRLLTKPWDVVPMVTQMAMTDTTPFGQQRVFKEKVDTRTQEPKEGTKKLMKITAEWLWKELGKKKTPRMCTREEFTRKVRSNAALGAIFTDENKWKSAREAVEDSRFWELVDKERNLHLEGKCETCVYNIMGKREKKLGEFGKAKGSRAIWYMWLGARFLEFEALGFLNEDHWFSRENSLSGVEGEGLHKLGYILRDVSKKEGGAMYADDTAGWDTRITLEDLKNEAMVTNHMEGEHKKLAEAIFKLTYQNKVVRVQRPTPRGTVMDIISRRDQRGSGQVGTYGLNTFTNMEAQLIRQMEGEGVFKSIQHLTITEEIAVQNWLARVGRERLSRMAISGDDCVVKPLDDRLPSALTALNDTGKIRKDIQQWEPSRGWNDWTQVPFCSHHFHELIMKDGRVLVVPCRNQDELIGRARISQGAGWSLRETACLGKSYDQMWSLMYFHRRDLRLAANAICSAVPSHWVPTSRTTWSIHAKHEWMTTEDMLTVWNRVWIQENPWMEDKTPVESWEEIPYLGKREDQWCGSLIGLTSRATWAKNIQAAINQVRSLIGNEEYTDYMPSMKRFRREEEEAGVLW

[4] = target: Beta-2 adrenergic receptor (Homo sapiens, UniProt P07550); test: beta2AR agonists driving receptor internalization, dose response, cell-based, FAP fluorogen, flow cytometry, cherry pick 1 (AID 588763); format: functional
Beta-2 adrenergic receptor, sequence (P07550 whole entry): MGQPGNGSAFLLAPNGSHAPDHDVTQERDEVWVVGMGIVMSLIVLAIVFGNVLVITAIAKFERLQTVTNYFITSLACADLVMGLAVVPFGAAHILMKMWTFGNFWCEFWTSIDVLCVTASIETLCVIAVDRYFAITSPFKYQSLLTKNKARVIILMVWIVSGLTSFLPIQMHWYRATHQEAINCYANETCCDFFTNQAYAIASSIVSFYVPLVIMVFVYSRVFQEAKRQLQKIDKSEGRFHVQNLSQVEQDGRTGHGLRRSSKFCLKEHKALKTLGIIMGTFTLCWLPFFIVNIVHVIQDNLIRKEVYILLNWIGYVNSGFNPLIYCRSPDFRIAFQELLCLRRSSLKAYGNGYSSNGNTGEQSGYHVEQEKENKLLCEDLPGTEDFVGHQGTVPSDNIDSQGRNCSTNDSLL

[5] = target: T2, Corticotropin-releasing factor receptor 2/Corticotropin-releasing factor-binding protein (Homo sapiens, UniProt P24387+Q13324); test: activators of CRF receptor 2 with binding protein – uHTS hits, confirmation (AID 602473); format: functional; settings: read-out: EC50_Mean
T2 sequence (Q13324 whole entry): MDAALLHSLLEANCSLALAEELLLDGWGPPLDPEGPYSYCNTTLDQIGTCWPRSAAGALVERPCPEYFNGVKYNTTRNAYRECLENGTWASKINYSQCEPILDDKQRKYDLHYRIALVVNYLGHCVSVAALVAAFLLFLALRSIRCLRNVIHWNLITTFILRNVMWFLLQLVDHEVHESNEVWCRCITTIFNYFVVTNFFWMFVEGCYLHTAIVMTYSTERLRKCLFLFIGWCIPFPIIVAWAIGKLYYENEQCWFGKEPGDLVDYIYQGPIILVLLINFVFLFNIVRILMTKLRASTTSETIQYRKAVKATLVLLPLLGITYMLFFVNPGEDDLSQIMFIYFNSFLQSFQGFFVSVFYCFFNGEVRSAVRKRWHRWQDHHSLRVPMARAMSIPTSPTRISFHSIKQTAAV
T2 sequence (P24387 whole entry): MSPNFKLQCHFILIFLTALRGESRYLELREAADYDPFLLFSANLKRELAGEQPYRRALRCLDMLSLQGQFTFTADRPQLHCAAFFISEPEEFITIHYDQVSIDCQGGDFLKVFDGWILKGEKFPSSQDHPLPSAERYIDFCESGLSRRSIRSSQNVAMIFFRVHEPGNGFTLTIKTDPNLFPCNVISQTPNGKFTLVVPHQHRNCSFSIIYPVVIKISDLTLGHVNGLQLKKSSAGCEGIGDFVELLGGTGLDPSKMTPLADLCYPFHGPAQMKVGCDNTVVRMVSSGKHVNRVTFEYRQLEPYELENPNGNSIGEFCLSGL

Cytochrome P450 2C9 = Cytochrome P450 2C9 (Homo sapiens, UniProt P11712)
Cytochrome P450 2C9, sequence (P11712 whole entry): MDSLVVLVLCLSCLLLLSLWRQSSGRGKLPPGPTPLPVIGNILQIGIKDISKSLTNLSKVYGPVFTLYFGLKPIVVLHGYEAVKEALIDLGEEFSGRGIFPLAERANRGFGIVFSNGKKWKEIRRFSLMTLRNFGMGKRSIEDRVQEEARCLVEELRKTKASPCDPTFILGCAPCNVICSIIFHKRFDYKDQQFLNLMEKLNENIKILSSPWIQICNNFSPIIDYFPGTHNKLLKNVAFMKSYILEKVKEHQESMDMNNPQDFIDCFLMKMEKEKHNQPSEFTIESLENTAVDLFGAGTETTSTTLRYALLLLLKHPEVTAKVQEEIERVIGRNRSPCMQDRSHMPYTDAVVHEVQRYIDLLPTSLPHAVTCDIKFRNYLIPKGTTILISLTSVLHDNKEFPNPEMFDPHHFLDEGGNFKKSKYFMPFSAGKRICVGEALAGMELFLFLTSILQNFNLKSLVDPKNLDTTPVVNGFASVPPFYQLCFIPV

[6] = target: T3, Endoribonuclease toxin MazF (Escherichia coli K-12, UniProt P0AE70); test: fluorescent RNA oligo signal without MazF, dose response, counter-screen for MazEF activator project, biochemical, fluorescence, single-stranded RNase substrate (AID 588502); format: functional
T3 sequence (P0AE70 whole entry): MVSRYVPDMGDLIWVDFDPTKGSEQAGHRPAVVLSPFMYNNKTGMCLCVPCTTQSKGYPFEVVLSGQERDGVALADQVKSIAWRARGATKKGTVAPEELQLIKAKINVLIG

[7] = target: T4, RNA-binding protein pos-1 (Caenorhabditis elegans, UniProt G5EF15); test: inhibitors of POS-1/mex-3 RNA binding, dose response, biochemical, fluorescence polarization (AID 1964);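 note: purified POS-1 fused to maltose binding protein made in E. coli; potency of compounds blocking POS-1 binding to fluorescent RNA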
T4 sequence (G5EF15 whole entry): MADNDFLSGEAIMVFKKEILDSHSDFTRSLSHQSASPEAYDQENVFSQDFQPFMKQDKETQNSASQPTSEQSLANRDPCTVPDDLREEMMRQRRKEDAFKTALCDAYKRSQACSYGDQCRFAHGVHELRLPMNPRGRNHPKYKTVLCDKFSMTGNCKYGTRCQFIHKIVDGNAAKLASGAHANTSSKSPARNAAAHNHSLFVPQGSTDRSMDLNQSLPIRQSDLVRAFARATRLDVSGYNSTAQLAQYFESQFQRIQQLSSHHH

[8] = target: T3, Endoribonuclease toxin MazF; test: MazF toxin RNase activators, dose response, biochemical, fluorescence, single-stranded RNA substrate, uHTS hits (AID 588481); format: functional
Cytochrome P450 3A4 = Cytochrome P450 3A4 (Homo sapiens, UniProt P08684);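 note: CYP3A4 tested as one member of a cytochrome P450 panel screen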
[9] = target: T5, Zinc finger protein mex-5 (Caenorhabditis elegans, UniProt Q9XUB2); test: MEX-5/TCR-2 RNA interaction inhibitors, dose response, biochemical, C. elegans, fluorescence polarization (AID 1960)
T5 sequence (Q9XUB2 whole entry): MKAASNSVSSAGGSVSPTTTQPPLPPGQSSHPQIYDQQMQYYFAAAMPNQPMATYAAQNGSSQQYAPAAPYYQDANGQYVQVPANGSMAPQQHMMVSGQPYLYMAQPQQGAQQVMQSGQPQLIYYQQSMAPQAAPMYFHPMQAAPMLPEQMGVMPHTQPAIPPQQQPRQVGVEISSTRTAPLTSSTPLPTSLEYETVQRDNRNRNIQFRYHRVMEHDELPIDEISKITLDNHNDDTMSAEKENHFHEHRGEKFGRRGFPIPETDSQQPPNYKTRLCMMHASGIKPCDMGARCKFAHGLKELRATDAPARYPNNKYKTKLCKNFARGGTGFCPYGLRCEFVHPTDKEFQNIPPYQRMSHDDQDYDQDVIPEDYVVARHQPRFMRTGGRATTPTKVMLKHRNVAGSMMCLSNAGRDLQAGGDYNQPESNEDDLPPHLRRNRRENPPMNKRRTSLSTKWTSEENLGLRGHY

[10] = ARNT/TACC3 interaction disruptors, potency, confirmation, biochemical, AlphaScreen, cherry-picked samples (AID 651703); format: functional, Homo sapiens;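 note: His-tagged ARNT PAS-B domain paired with GST-TACC3 E629A dimer coactivator fragment; potency of inhibitors that break up the complex and lower AlphaScreen signal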

In the case of `CN(C)c1cc(NC(=O)CNC(C)(C)C)c2ccccc2n1`, the AC50 [1] is reported as 16.4 µM (active).
For `COC(=O)C/C=C\[C@@H](C)[C@@H](/C=N\OC[C@@H](O)COCc1ccco1)NS(=O)(=O)c1ccc(C)cc1`, the AC50 (Cytochrome P450 2D6) was “inconclusive”.
In the case of `CC[C@]1(O)C[C@H]2CN(CCc3c([nH]c4ccccc34)[C@](C(=O)OC)(c3cc4c(cc3OC)N(C=O)[C@H]3[C@@](O)(C(=O)OC)[C@H](OC(C)=O)[C@@]5(CC)C=CCN6CC[C@]43[C@H]65)C2)C1`, the AC50 (Cytochrome P450 2D6) is reported as “inconclusive”.
With `CC1CCc2[nH]c3ccc(C(=O)N(C)CC(=O)Nc4ccccc4C(F)(F)F)cc3c2C1` (stereo unspecified) the IC50 [2] was > 80 µM (inactive).
In the case of `CCOC(=O)CN1C(=O)NC2NC(=O)NC21` (stereo unspecified), the IC50 [3] is reported as 23.8 µM (inactive).
In the case of `O=C(O)COc1ccccc1/C=C1\C(=O)NC(=O)N(CCC2=CCCCC2)C1=O`, the IC50 (Genome polyprotein) is reported as > 100 µM (active).
In the case of `COCCc1ncc(CN2CCC(C(=O)Nc3ccc(-n4cccn4)cc3)CC2)cn1`, the EC50 [4] is reported as 1.29 µM (active).
For `CC(=O)c1cc(NC(=O)c2cccc(C(F)(F)F)c2)c(=O)oc1/C=C/N(C)C`, the EC50 [5] was 5.91 µM (active), the AC50 (Cytochrome P450 2C9) was “inconclusive” and the EC50 [6] was 22.2 µM (inactive). The EC50 [7] was > 300 µM (not active), the EC50 [8] was > 99 µM (inactive) and the AC50 (Cytochrome P450 3A4) was 6.31 µM (inconclusive). The EC50 [9] was > 300 µM (inconclusive).
For `O=C(NCCCn1ccnc1)C(=O)NCC(c1ccco1)N1CCN(c2ccc(F)cc2)CC1` (stereo unspecified), the AC50 [10] was 99.3 µM (active).
With `CCC1(CC)C(=O)C2=C3C1[C@H](C(=O)OC)C=C(C(=O)OC)C[C@H]3n1c(=O)n(-c3ccccc3)c(=O)n1[C@H]2C` (stereo partly specified) the IC50 [3] was 22.4 µM (inactive).
